# Structures can show the parent of a compound that is named as a salt.
# Tests used:
# [1] = system: MOLM16 xenograft; assay: MOLM16 xenograft in immunocompromised mice; type: in vivo; settings: 100 mg/Kg QD
# From the text: Several compounds of the present invention have been studied in a xenograft in mice, an in vivo tumor transplantation model used to investigate the factors involved in malignant transformation, invasion and metastasis, as well as to examine response to therapy. For the purpose of acceptance of donor leukemic cells (MV4-11 or MOLM16 cells), immunocompromised mice were used, namely particularly severely compromised immunodeficient mice (NOD/scid, SCID/beige). When tumors developed size of approx. 50-200 mm^3, the compounds as indicated below in Tables 3 and 3a were administered orally every day for 2-3 weeks, in once a day (QD) or twice a day (BID) schedule. During the course of the experiment, the mice were monitored and the following two parameters were measured: the tumor growth inhibition (TGI) factor as a measure of therapeutic efficacy and the body weight change (ΔBW) factor as a measure of possible compound toxicity. The results are depicted in Tables 3 and 3a.
# Additionally, compound 2A, together with other examples was tested in MOLM16 cells xenografted into immunocompromised mice.
# [2] = molecular target: FLT3(ITD) (Homo sapiens, UniProt P36888, ITD); assay: Binding to FLT3(ITD) mutant (DiscoveRx)
# Protocol: (§1) Selected compounds were also tested for their binding properties against FLT3 kinase mutants using suitable in vitro assays (performed according to standard assays at DiscoveRx Corporation). The compounds show strong binding to the main oncogenic mutants of the FLT3 kinase, see Table 1B.
# [3] = system: U-937; assay: Combination study with anti-cancer agents, cell viability, U-937; settings: for Effect of combination: 72 hours
# Protocol: (§2) After this incubation, a cell viability assay was carried out according to the Manufacturer's instructions (CellTiter 96®AQueous Non-Radioactive Cell Proliferation Assay, Promega). The results were expressed as percentage of viable cells upon treatment with the individual drugs or the combination compared to the vehicle (DMSO) treated cells.
# [4] = molecular target: FLT3(D835Y) (Homo sapiens (Human), UniProt P36888, D835Y); assay: Binding to FLT3(D835Y) mutant (DiscoveRx)
# Protocol: as §1
# [5] = system: MV4-11; assay: Combination study with anti-cancer agents, cell viability, MV4-11; settings: for ED50 value in MV4-11: single agent, used as fixed concentration in combination study; for Effect of combination: 72 hours
# Protocol: as §2
# [6] = system: Mino; assay: Combination study with anti-cancer agents, cell viability, Mino
# Protocol: as §2
# [7] = molecular target: FLT3wt (Homo sapiens (Human), UniProt P36888); assay: Binding to FLT3 wildtype (DiscoveRx)
# [8] = system: Pim kinase biomarkers in MV4-11 cells; assay: Pim-kinase biomarkers in MV4-11 cells; type: cell-based, Human; settings: 0.25-5 μM, 4 and 24 h
# Protocol: The efficacy of compounds 1A and 2A on Pim kinase-inhibition was tested in MV4-11 cells (see above). Cells were treated with each compound at concentrations of 0.25, 0.5, 1, 2.5 and 5 μM for 4 and 24 h. The positive control Ref A (the commercially available inhibitor SGI-1776 [obtained from Selleck Bio]) was used at a concentration of 5 μM. DMSO (Dimethyl sulfoxide) was used as a negative control. The levels of the following classical Pim-1 kinase biomarkers were assessed: c-Myc, phospho-4EBP1 (Ser65, Thr37&46) and phosphorylated S6 (Ser235). […] Also, the levels of pro-apoptotic and pro-survival biomarkers were assessed. First, induction of apoptosis, recognizable as an appearance and increased expression of cleaved form of the PARP protein, was observed, both at 4 and 24 hours after compound stimulation at high concentrations. […] Levels of tubulin were assessed as a reference loading control.
# The efficacy of compound 1BI on Pim kinase-inhibition was tested in MV4-11 cells. The cells were treated with compound 1BI at concentrations of 0.25, 0.5, 1, 2.5 and 5 μM for 4 and 24 h. The positive controls Ref. A (SGI-1776, see above) and Ref. B (the commercially available inhibitor Sunitinib [obtained from Ark Pharm]) were used at 5 μM concentration. DMSO (Dimethyl sulfoxide) was used as a negative control. The levels of the following classical Pim-1 kinase biomarkers were assessed: c-myc, phospho-4EBP1 (Ser65, Thr37&46) and phosphorylated S6 (Ser235/236). […] The levels of pro-apoptotic and pro-survival biomarkers were also assessed. […] Levels of tubulin were assessed as a reference loading control.
# [9] = system: PC3; assay: Combination study with anti-cancer agents, cell viability, PC3; settings: for Effect of combination: 72 hours
# Protocol: as §2
# [10] = system: HEL-92; assay: Combination study with anti-cancer agents, cell viability, HEL-92; settings: for Effect of combination: 72 hours
# Protocol: as §2
# [11] = molecular target: FLT3(D835H) (Homo sapiens (Human), UniProt P36888, D835H); assay: Binding to FLT3(D835H) mutant (DiscoveRx)
# Protocol: as §1
# [12] = system: MOLM-16; assay: Combination study with anti-cancer agents, cell viability, MOLM-16; settings: for Effect of combination: MOLM-16 (Acute myeloid leukemia), 72 hours
# Protocol: as §2
# [13] = system: Pim kinase biomarkers in MOLM16 cells; assay: Pim-kinase biomarkers in MOLM16 cells; type: cell-based, Human; settings: 0.1-2.5 μM, 4 and 24 h
# Protocol: The efficacy of compound 1BI on Pim kinase-inhibition was also tested in MOLM16 cells (an acute myeloid leukemia cell line). The cells were treated with compound 1BI at concentrations of 0.1, 0.25, 0.5, 1 and 2.5 μM for 4 and 24 h. The positive controls Ref. A (SGI-1776, see above) and Ref. B (Sunitinib, see above) were used at 5 μM concentration. DMSO (Dimethyl sulfoxide) was used as a negative control. The levels of the following classical Pim-1 kinase biomarkers were assessed: c-myc, phospho-4EBP1 (Scr65, Thr37&46) and phosphorylated S6 (Scr235/236). […] The levels of a pro-apoptotic biomarker were assessed; induction of apoptosis, presented as an appearance and increased expression of cleaved form of PARP protein, was observed. Levels of tubulin were assessed as a reference loading control.
# [14] = single agent, used as fixed concentration in combination study
compound,measurement,setting,value
"CC(C)n1c(N2CCNCC2)nc2c([N+](=O)[O-])c(Br)c(Br)cc21 [Example 2A, 5,6-dibromo-4-nitro-2-(piperazin-1-yl)-1-(propan-2-yl)-1H-1,3-benzodiazole hydrochloride]",ΔBW (body weight change),[1],−8.6%
same,TGI (tumor growth inhibition),[1]; hydrochloride,>99%
same,Kd,[2],18 nM
"CCn1c(N2CCNCC2)nc2c([N+](=O)[O-])c(Br)c(Br)cc21 [Example 1A, 5,6-dibromo-1-ethyl-4-nitro-2-(piperazin-1-yl)-1H-1,3-benzodiazole hydrochloride]",ED50 value in U-937,[3]; [14],6640 nM
same,Effect of combination,"[3]; with ABT737, U937 (Histiocytic lymphoma)",Synergistic
same,Effect of combination,"[3]; with Obatoclax, U937 (Histiocytic lymphoma)",Synergistic
same,Kd,[4],46 nM
same,ED50 value in MV4-11,[5],500 nM
same,Effect of combination,"[5]; with CAL-101, MV4-11 (Acute myeloid leukemia)",Synergistic
same,ED50 value in Mino,[6]; [14],1700 nM
same,Effect of combination,"[6]; with PD0332991, Mino (Mantle cell lymphoma), 72 hours",Synergistic
same,Kd,[7],400 nM
same,Mcl-1 pro-survival protein level,[8],dosed-dependent protein down-regulation
same,induction of apoptosis (cleaved form of PARP protein),[8],observed
same,levels of c-myc protein,[8],downregulated
same,"levels of phosphorylated 4EBP1 (Ser65, Thr37&46)",[8],downregulated
same,levels of phosphorylated S6,[8],downregulated
same,"levels of phosphorylated p44/42 (Erk1/2), Flt3 biomarker",[8],downregulated
same,ED50 value in PC3,[9]; [14],2910 nM
same,Effect of combination,"[9]; with CAL-101, PC3 (Prostate cancer)",Synergistic
same,Effect of combination,"[9]; with GDC-0941, PC3 (Prostate cancer)",Synergistic/
same,Effect of combination,"[9]; with Rapamycin, PC3 (Prostate cancer)",Synergistic
same,Effect of combination,"[9]; with Wortmannin, PC3 (Prostate cancer)",Synergistic
same,ED50 value in HEL-92,[10]; [14],5460 nM
same,Effect of combination,"[10]; with CP690550, HEL92 (Erythroleukemia)",Synergistic
same,Effect of combination,"[10]; with Cyt387, HEL92 (Erythroleukemia)",Synergistic
same,Effect of combination,"[10]; with Ruxolitinib, HEL92 (Erythroleukemia)",Synergistic/
same,Kd,[2],74 nM
same,Kd,[11],120 nM
"CC(C)n1c(C2CCNCC2)nc2c([N+](=O)[O-])c(Br)c(Br)cc21 [Example 26A, 5,6-dibromo-4-nitro-2-(piperidin-4-yl)-1-(propan-2-yl)-1H-1,3-benzodiazole]",ED50 value in MV4-11,[5],100 nM
same,Effect of combination,"[5]; with C (Cytarabine), MV4-11 (Acute myeloid leukemia)",Synergistic
same,Effect of combination,"[5]; with V (Vosaroxin), MV4-11 (Acute myeloid leukemia)",Synergistic
same,ED50 value in MOLM-16,[12]; [14],400 nM
same,Effect of combination,[12]; with C (Cytarabine),Synergistic
same,Effect of combination,[12]; with V (Vosaroxin),Synergistic
CC(C)n1c(N2CC[C@@H](N)C2)nc2c(C#N)c(Br)c(Br)cc21 [Example 1BI],Mcl-1 pro-survival protein level,[8],dosed-dependent protein down-regulation
same,induction of apoptosis (cleaved form of PARP protein),[8],observed in the highest concentration at 4 hours
same,levels of c-myc protein,[8],down-regulated
same,"levels of phosphorylated 4EBP1 (Ser65, Thr37&46)",[8],down-regulated
same,levels of phosphorylated S6,[8],diminished almost completely
same,"levels of phosphorylated p44/42 (Erk1/2), Flt3 biomarker",[8],downregulated
same,induction of apoptosis (cleaved form of PARP protein),[13],observed
same,levels of c-myc protein,[13],downregulated
same,levels of phosphorylated 4EBP1 (Ser65 and Thr37/46),[13],downregulated
same,levels of phosphorylated S6,[13],diminished completely
